Outcome data for 43 molecules are collected here from PubChem BioAssay AID2202554 (NIEHS Division of Translational Toxicology (DTT)).

Inconclusive results are not listed. Calls of active or inactive are those of the source. How the calls were made is not given here. Residues, ends and D or L forms follow the SMILES beside them.

In this data set the test system is S. typhimurium/E. coli reverse mutation, colony counts. As to the kind of experiment: Bacterial reverse mutation test (aka Ames test) summary data. The method in brief:
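S. typhimurium his⁻ strains (TA97–TA1538) and E. coli WP2 uvrA pKM101 trp⁻, dosed over a range with or without rat, hamster or mouse liver S9. Preincubated 20 min at 37° C (or plate incorporation), plated in agar, incubated usually two days. Revertant colonies counted against negative controls.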
(In the Ames test, an excess of revertant colonies over the control signals mutagenicity.)
For `COC(=O)[C@H](Cc1ccccc1)NC(=O)[C@@H](N)CC(=O)O` (H-Asp-Phe-OMe), the outcome was “inactive; negative”.
As to `ClC1=C(Cl)[C@]2(Cl)[C@H]3[C@H]([C@@H]4C=C[C@H]3C4)[C@@]1(Cl)C2(Cl)Cl`, the outcome was “inactive; negative”.
Under `Cc1ccc(N)cc1C` stands “active; positive”; under `COC(=O)C1CCC(C(=O)OC)CC1` (stereo not drawn), “active; positive”.
Under `CCCCCC=CC=CC=O` stands “inactive; negative”; under `Cc1cc(=O)oc2cc(O)ccc12`, “inactive; negative”; under `Nc1cc(C(=O)O)c(O)c(S(=O)(=O)O)c1`, “inactive; negative”.
As for `Cc1cnc[nH]1`, the outcome is “inactive; negative”.
The same measure for `C=CCOC(=O)CC(C)C`: “inactive; negative”.
The same measure for `CCCCOCCOCCO`: “inactive; negative”; for `Cc1ccc2cccnc2c1`: “active; positive”.
Under `Nc1ccc(C(=O)O)cc1` stands “inactive; negative”.
For `Cc1ccc(N)cc1Cl`, the outcome is “active; weakly positive”.
The same measure for `COC(=O)c1ccccc1N`: “inactive; negative”; for `Nc1ccc(Nc2ccccc2)cc1`: “inactive; negative”; for `O=Cc1ccc(CO)o1`: “active; weakly positive”.
Under `C[N+](=O)[O-]` stands “inactive; negative”; under `CC1CCCCC1CO` (stereo not drawn), “inactive; negative”.
The same measure for `COS(C)(=O)=O`: “active; positive”; for `CCN(CC)C(=S)S[Te](SC(=S)N(CC)CC)(SC(=S)N(CC)CC)SC(=S)N(CC)CC`: “inactive; negative”.
As to `NS(=O)(=O)c1cc2c(cc1Cl)NC=NS2(=O)=O`, the outcome was “inactive; negative”.
The same measure for `CCCCCCCCn1sccc1=O`: “inactive; negative”; for `Nc1ccccc1Cl`: “inactive; negative”; for `NC(N)=NC(N)=NCCc1ccccc1`: “inactive; negative”.
Under `O=[N+]([O-])c1cc(C(F)(F)F)cc([N+](=O)[O-])c1Cl` stands “inactive; negative”; under `NCCNCCNCCNCCN`, “active; positive”; under `Nc1cc(S(=O)(=O)O)cc2cc(S(=O)(=O)O)c(N=Nc3ccc(-c4ccc(N=Nc5c(S(=O)(=O)O)cc6cc(S(=O)(=O)O)cc(N)c6c5O)cc4)cc3)c(O)c12`, “inactive; negative”.
Take `O=C(OCC1CO1)c1cccc(C(=O)OCC2CO2)c1` (stereo not drawn): the outcome is “active; positive”.
Under `O=C1C2CC=CCC2C(=O)N1SC(Cl)(Cl)Cl` (stereo not drawn) stands “active; positive”; under `O=C(NC(S)c1nc2ccccc2s1)NC(S)c1nc2ccccc2s1` (stereo not drawn), “active; positive”.
The same measure for `CC(C=O)=Cc1ccccc1`: “inactive; negative”; for `CC(=O)Nc1cccc(O)c1`: “inactive; negative”.
`CCCCCCCCC(=O)O`: the outcome is “inactive; negative”.
Under `CN(C)P(=O)(N(C)C)N(C)C` stands “inactive; negative”; under `O=C(O)COc1ccccc1`, “inactive; negative”.
The same measure for `ClC1(Cl)C2(Cl)C3(Cl)C4(Cl)C(Cl)(Cl)C5(Cl)C3(Cl)C1(Cl)C5(Cl)C24Cl` (stereo not drawn): “inactive; negative”.
Consider `Nc1nc(-c2ccccc2)cs1`, for which the outcome was “active; positive”.
In the case of `C[N+](C)(C)Cc1ccccc1`, the outcome is “inactive; negative”.
The same measure for `Cc1c(O)cccc1O`: “inactive; negative”; for `Nc1ncc([N+](=O)[O-])s1`: “active; positive”; for `CCCCCCCCCCCCCCCCCC(=O)O`: “inactive; negative”.
The same measure for `c1ccsc1`: “inactive; negative”; for `C=CCOC(C)=O`: “active; positive”.
